Reference: patent publication US20250326726A1, “FERROPTOSIS INHIBITORS-PHENOXAZINE ACETAMIDES” (SIRONAX (BEIJING) CO., LTD., priority 2023, published 2025)

System: HT-1080 cells
Experiment: RSL3-induced HT-1080 cells ferroptosis assay (10% FBS)
Type: cell-based

5-(dimethylamino)-N-((8-(trifluoromethyl)-10H-phenoxazin-3-yl)methyl)pentanamide [Compound 57]
Bioactivity (RSL3-induced HT-1080 cells ferroptosis assay (10% FBS)): 1 to 100 nM
